ChEMBL document CHEMBL4613209, “Quinolone hybrids and their anti-cancer activities: An overview” (Eur J Med Chem, 2019)

The compounds below were run on EJ (assay: Cytotoxicity against human EJ cells assessed as reduction in cell viability by MTT assay). Conditions: not given.
Type: functional, cell-based

**Q.** With `CCn1cc(C(=O)O)c(=O)c2cc(F)c(N3CCN(C/C(=N/OCc4ccccc4)c4ccc(Cl)s4)CC3)cc21` as the compound, how does the IC50 read?
**A.** The IC50 was at most 20 µM.

**Q.** Which IC50 does the source give for `CCn1cc(C(=O)O)c(=O)c2cc(F)c(N3CCN(C/C(=N/OCc4ccccc4)c4ccc(Cl)s4)CC3)nc21` here?
**A.** Its IC50 is at most 20 µM.

**Q.** For `CCn1cc(C(=O)O)c(=O)c2cc(F)c(N3CCN(C/C(=N/OC)c4ccc(Cl)s4)CC3)nc21`, which IC50 is on record?
**A.** Its IC50 is at most 20 µM.

**Q.** For `O=C(CN1CCN(c2cc3c(cc2F)c(=O)c(C(=O)O)cn3C2CC2)CC1)c1cccs1`, which IC50 is on record?
**A.** Its IC50 is 2 to 131 µM.

**Q.** `CCn1cc(C(=O)O)c(=O)c2cc(F)c(N3CCN(C/C(=N/O)c4ccc(Cl)s4)CC3)nc21` was tested. Which IC50 did it give?
**A.** The IC50 was at most 20 µM.

**Q.** `CCn1cc(C(=O)O)c(=O)c2cc(F)c(N3CCNCC3)nc21` [ENOXACIN] was tested. Which IC50 did it give?
**A.** The IC50 was 137 to 238 µM.

These compounds were tested on A-431 (assay: Cytotoxicity against human A431 cells assessed as reduction in cell viability by MTT assay). Conditions: not given.
Type: functional, cell-based

**Q.** `CCn1cc(C(=O)O)c(=O)c2cc(F)c(N3CCN(C/C(=N/OCc4ccccc4)c4ccc(Cl)s4)CC3)cc21` was tested. Which IC50 did it give?
**A.** Its IC50 is at most 20 µM.

**Q.** How did the IC50 turn out when `CCn1cc(C(=O)O)c(=O)c2cc(F)c(N3CCN(C/C(=N/OCc4ccccc4)c4ccc(Cl)s4)CC3)nc21` was run?
**A.** Its IC50 is at most 20 µM.

**Q.** For `CCn1cc(C(=O)O)c(=O)c2cc(F)c(N3CCN(C/C(=N/OC)c4ccc(Cl)s4)CC3)nc21`, which IC50 is on record?
**A.** Its IC50 is at most 20 µM.

**Q.** `O=C(CN1CCN(c2cc3c(cc2F)c(=O)c(C(=O)O)cn3C2CC2)CC1)c1cccs1` was tested. Which IC50 did it give?
**A.** The IC50 was 2 to 131 µM.

**Q.** `CCn1cc(C(=O)O)c(=O)c2cc(F)c(N3CCN(C/C(=N/O)c4ccc(Cl)s4)CC3)nc21` was tested. Which IC50 did it give?
**A.** Its IC50 is at most 20 µM.

**Q.** How did the IC50 turn out when `CCn1cc(C(=O)O)c(=O)c2cc(F)c(N3CCNCC3)nc21` [ENOXACIN] was run?
**A.** The IC50 was 137 to 238 µM.

These compounds were tested on SK-MEL3 (assay: Cytotoxicity against human SK-MEL-3 cells assessed as reduction in cell viability by MTT assay). Conditions: not given.
Type: functional, cell-based

**Q.** For `CCn1cc(C(=O)O)c(=O)c2cc(F)c(N3CCN(C/C(=N/OCc4ccccc4)c4ccc(Cl)s4)CC3)cc21`, which IC50 is on record?
**A.** Its IC50 is at most 20 µM.

**Q.** `CCn1cc(C(=O)O)c(=O)c2cc(F)c(N3CCN(C/C(=N/OCc4ccccc4)c4ccc(Cl)s4)CC3)nc21` was tested. Which IC50 did it give?
**A.** The IC50 was at most 20 µM.

**Q.** Which IC50 does the source give for `CCn1cc(C(=O)O)c(=O)c2cc(F)c(N3CCN(C/C(=N/OC)c4ccc(Cl)s4)CC3)nc21` here?
**A.** The IC50 was at most 20 µM.

**Q.** With `O=C(CN1CCN(c2cc3c(cc2F)c(=O)c(C(=O)O)cn3C2CC2)CC1)c1cccs1` as the compound, how does the IC50 read?
**A.** Its IC50 is 2 to 131 µM.

**Q.** How did the IC50 turn out when `CCn1cc(C(=O)O)c(=O)c2cc(F)c(N3CCN(C/C(=N/O)c4ccc(Cl)s4)CC3)nc21` was run?
**A.** The IC50 was at most 20 µM.

**Q.** `CCn1cc(C(=O)O)c(=O)c2cc(F)c(N3CCNCC3)nc21` [ENOXACIN] was tested. Which IC50 did it give?
**A.** The IC50 was 137 to 238 µM.

Each compound was assayed on HL-60 (assay: Antiproliferative activity against human HL60 cells after 72 hrs by MTT assay). Conditions: HL-60, 72 h.
Type: functional, cell-based

**Q.** How did the IC50 turn out when `N=C(NS(=O)(=O)c1ccccc1)N1CCN(c2cc3c(cc2F)c(=O)c(C(=O)O)cn3C2CC2)CC1` was run?
**A.** Its IC50 is 0.032 to 0.161 µM.

**Q.** How did the IC50 turn out when `CCn1cc(C(=O)O)c(=O)c2cc(F)c(N3CCN(C(=N)NS(=O)(=O)c4ccc(C)cc4)CC3)cc21` was run?
**A.** The IC50 was 0.032 to 0.161 µM.

**Q.** Which IC50 does the source give for `CCn1cc(C(=O)O)c(=O)c2cc(F)c(N3CCN(C(=N)NS(=O)(=O)c4ccccc4)CC3)cc21` here?
**A.** The IC50 was 0.032 to 0.161 µM.

**Q.** `CCc1c2c(nc3ccc(OC(=O)N4CCC(N5CCCCC5)CC4)cc13)-c1cc3c(c(=O)n1C2)COC(=O)[C@]3(O)CC` [IRINOTECAN] was tested. Which IC50 did it give?
**A.** Its IC50 is 0.032 to 0.044 µM.

These compounds were tested on A549 (assay: Antiproliferative activity against human A549 cells after 72 hrs by MTT assay). Conditions: A549, 72 h.
Type: functional, cell-based

**Q.** For `N=C(NS(=O)(=O)c1ccccc1)N1CCN(c2cc3c(cc2F)c(=O)c(C(=O)O)cn3C2CC2)CC1`, which IC50 is on record?
**A.** The IC50 was 0.032 to 0.161 µM.

**Q.** With `CCn1cc(C(=O)O)c(=O)c2cc(F)c(N3CCN(C(=N)NS(=O)(=O)c4ccc(C)cc4)CC3)cc21` as the compound, how does the IC50 read?
**A.** Its IC50 is 0.032 to 0.161 µM.

**Q.** `CCn1cc(C(=O)O)c(=O)c2cc(F)c(N3CCN(C(=N)NS(=O)(=O)c4ccccc4)CC3)cc21` was tested. Which IC50 did it give?
**A.** Its IC50 is 0.032 to 0.161 µM.

These compounds were tested on SW480 (assay: Cytotoxicity against human SW480 cells assessed as reduction in cell viability by MTT assay). Conditions: not given.
Type: functional, cell-based

**Q.** Which IC50 does the source give for `CCn1cc(C(=O)O)c(=O)c2cc(F)c(N3CCN(C/C(=N/OCc4ccccc4)c4ccc(Cl)s4)CC3)cc21` here?
**A.** Its IC50 is at most 20 µM.

**Q.** `CCn1cc(C(=O)O)c(=O)c2cc(F)c(N3CCN(C/C(=N/OCc4ccccc4)c4ccc(Cl)s4)CC3)nc21` was tested. Which IC50 did it give?
**A.** Its IC50 is at most 20 µM.

**Q.** For `CCn1cc(C(=O)O)c(=O)c2cc(F)c(N3CCN(C/C(=N/OC)c4ccc(Cl)s4)CC3)nc21`, which IC50 is on record?
**A.** The IC50 was at most 20 µM.

**Q.** For `O=C(CN1CCN(c2cc3c(cc2F)c(=O)c(C(=O)O)cn3C2CC2)CC1)c1cccs1`, which IC50 is on record?
**A.** The IC50 was 2 to 131 µM.

**Q.** For `CCn1cc(C(=O)O)c(=O)c2cc(F)c(N3CCN(C/C(=N/O)c4ccc(Cl)s4)CC3)nc21`, which IC50 is on record?
**A.** The IC50 was at most 20 µM.

**Q.** How did the IC50 turn out when `CCn1cc(C(=O)O)c(=O)c2cc(F)c(N3CCNCC3)nc21` [ENOXACIN] was run?
**A.** Its IC50 is 137 to 238 µM.

These compounds were tested on MCF7 (assay: Cytotoxicity against human MCF7 cells assessed as reduction in cell viability by MTT assay). Conditions: not given.
Type: functional, cell-based

**Q.** Which IC50 does the source give for `CCn1cc(C(=O)O)c(=O)c2cc(F)c(N3CCN(C/C(=N/OCc4ccccc4)c4ccc(Cl)s4)CC3)cc21` here?
**A.** Its IC50 is at most 20 µM.

**Q.** For `CCn1cc(C(=O)O)c(=O)c2cc(F)c(N3CCN(C/C(=N/OCc4ccccc4)c4ccc(Cl)s4)CC3)nc21`, which IC50 is on record?
**A.** Its IC50 is at most 20 µM.

**Q.** `CCn1cc(C(=O)O)c(=O)c2cc(F)c(N3CCN(C/C(=N/OC)c4ccc(Cl)s4)CC3)nc21` was tested. Which IC50 did it give?
**A.** The IC50 was at most 20 µM.

**Q.** `O=C(CN1CCN(c2cc3c(cc2F)c(=O)c(C(=O)O)cn3C2CC2)CC1)c1cccs1` was tested. Which IC50 did it give?
**A.** The IC50 was 2 to 131 µM.

**Q.** For `CCn1cc(C(=O)O)c(=O)c2cc(F)c(N3CCN(C/C(=N/O)c4ccc(Cl)s4)CC3)nc21`, which IC50 is on record?
**A.** Its IC50 is at most 20 µM.

**Q.** `CCn1cc(C(=O)O)c(=O)c2cc(F)c(N3CCNCC3)nc21` [ENOXACIN] was tested. Which IC50 did it give?
**A.** The IC50 was 137 to 238 µM.
